Reference: ChEMBL document CHEMBL1133609, “DoMCoSAR: a novel approach for establishing the docking mode that is consistent with the structure-activity relationship. Application to HIV-1 protease inhibitors and VEGF receptor tyrosine kinase inhibitors” (J Med Chem, 2000)

Assays:
[1] = biological target: Vascular endothelial growth factor receptor 2 (Mus musculus, UniProt P35918); assay: Inhibitory activity against vascular endothelial growth factor receptor 2 (FLK1)
[2] = biological target: Human immunodeficiency virus type 1 protease (Human immunodeficiency virus 1, UniProt Q72874); assay: Inhibitory activity against HIV-1 protease.

Sequence of Vascular endothelial growth factor receptor 2 (P35918 whole entry): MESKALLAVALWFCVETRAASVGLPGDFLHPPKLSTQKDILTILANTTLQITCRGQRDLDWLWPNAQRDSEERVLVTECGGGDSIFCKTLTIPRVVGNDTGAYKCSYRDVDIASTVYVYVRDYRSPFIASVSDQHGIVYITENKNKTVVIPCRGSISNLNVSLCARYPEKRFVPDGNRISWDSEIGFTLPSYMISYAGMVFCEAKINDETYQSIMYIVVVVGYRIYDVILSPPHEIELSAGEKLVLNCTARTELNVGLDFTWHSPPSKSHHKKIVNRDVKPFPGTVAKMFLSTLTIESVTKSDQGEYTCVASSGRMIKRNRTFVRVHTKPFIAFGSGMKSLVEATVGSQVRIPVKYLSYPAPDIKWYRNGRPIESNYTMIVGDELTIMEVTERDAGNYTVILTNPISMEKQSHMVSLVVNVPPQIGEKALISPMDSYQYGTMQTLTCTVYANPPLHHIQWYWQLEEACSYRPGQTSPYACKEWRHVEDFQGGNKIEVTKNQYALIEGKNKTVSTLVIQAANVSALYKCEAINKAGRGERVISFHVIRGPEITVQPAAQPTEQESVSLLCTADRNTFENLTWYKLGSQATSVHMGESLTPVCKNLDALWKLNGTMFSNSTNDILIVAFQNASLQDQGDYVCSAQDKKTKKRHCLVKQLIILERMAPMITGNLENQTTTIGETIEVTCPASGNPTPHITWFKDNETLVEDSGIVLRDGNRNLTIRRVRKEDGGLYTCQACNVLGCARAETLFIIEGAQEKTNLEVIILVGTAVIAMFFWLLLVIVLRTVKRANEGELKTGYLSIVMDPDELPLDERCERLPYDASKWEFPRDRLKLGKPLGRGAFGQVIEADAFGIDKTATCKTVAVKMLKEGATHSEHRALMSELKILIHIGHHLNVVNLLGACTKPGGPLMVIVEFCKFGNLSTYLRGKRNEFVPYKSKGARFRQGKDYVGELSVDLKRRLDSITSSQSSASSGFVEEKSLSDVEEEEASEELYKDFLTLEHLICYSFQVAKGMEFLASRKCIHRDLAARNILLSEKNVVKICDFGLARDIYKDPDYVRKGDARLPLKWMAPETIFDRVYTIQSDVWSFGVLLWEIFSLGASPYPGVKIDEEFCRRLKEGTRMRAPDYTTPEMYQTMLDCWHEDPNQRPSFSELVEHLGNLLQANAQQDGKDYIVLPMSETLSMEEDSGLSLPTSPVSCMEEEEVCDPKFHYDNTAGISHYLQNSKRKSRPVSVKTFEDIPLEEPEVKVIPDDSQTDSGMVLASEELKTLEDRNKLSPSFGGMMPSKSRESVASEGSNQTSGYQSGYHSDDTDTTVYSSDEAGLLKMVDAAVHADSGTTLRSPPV

SMILES	IC50 [1]	IC50 [2]
CC(C)(C)OC(=O)N[C@@H](Cc1ccccc1)[C@@H](O)C[C@@H](Cc1ccccc1)C(=O)N[C@@H]1c2ccccc2OC[C@H]1O	–	0.00018 µM
CC(C)(C)OC(=O)N[C@@H](Cc1ccccc1)[C@@H](O)C[C@@H](Cc1ccccc1)C(=O)N[C@@H]1c2ccccc2[C@@H](O)[C@H]1O	–	0.0001 µM
Cc1ccc(C[C@H](C[C@H](O)[C@H](Cc2ccccc2)NC(=O)OC(C)(C)C)C(=O)N[C@@H]2c3ccccc3C[C@H]2O)cc1	–	0.00029 µM
CC(C)(C)OC(=O)N[C@@H](Cc1ccccc1)[C@@H](O)C[C@@H](CSc1ccccc1)C(=O)N[C@@H]1c2ccccc2C[C@H]1O	–	0.00025 µM
CC(C)(C)OC(=O)N[C@@H](Cc1ccccc1)[C@@H](O)C[C@@H](Cc1ccccc1)C(=O)N[C@H]1CCc2ccccc21	–	0.0343 µM
CC(C)(C)OC(=O)N[C@@H](Cc1ccccc1)[C@@H](O)C[C@@H](Cc1ccc(C(F)(F)F)cc1)C(=O)N[C@@H]1c2ccccc2C[C@H]1O	–	0.00026 µM
CC(C)(C)OC(=O)N[C@@H](Cc1ccccc1)[C@@H](O)C[C@@H](Cc1ccccc1)C(=O)N[C@@H]1c2ccccc2CC[C@H]1O	–	0.0007 µM
CC(C)(C)OC(=O)N[C@@H](Cc1ccccc1)[C@@H](O)C[C@@H](Cc1ccc(N)cc1)C(=O)N[C@@H]1c2ccccc2C[C@H]1O	–	0.00031 µM
CC(C)(C)OC(=O)N[C@@H](Cc1ccccc1)[C@@H](O)C[C@@H](Cc1ccccc1)C(=O)N[C@@H]1c2ccccc2C[C@H]1O	–	0.00025 µM
CC(C)(C)OC(=O)N[C@@H](Cc1ccccc1)[C@@H](O)C[C@@H](CC(=O)c1ccccc1)C(=O)N[C@@H]1c2ccccc2C[C@H]1O	–	0.00542 µM
CC(C)(C)OC(=O)N[C@@H](Cc1ccccc1)[C@@H](O)C[C@@H](Cc1ccc(O)cc1)C(=O)N[C@@H]1c2ccccc2C[C@H]1O	–	0.00016 µM
CC(C)(C)OC(=O)N[C@@H](Cc1ccccc1)[C@@H](O)CCC(=O)N[C@@H]1c2ccccc2C[C@H]1O	–	2.94 µM
CC(C)(C)OC(=O)N[C@@H](Cc1ccccc1)[C@@H](O)C[C@@H](Cc1ccc(C(C)(C)C)cc1)C(=O)N[C@@H]1c2ccccc2C[C@H]1O	–	0.00017 µM
CC(C)(C)OC(=O)N[C@@H](Cc1ccccc1)[C@@H](O)C[C@@](C)(Cc1ccccc1)C(=O)N[C@@H]1c2ccccc2C[C@H]1O	–	0.00771 µM
C=CC[C@H](C[C@H](O)[C@H](Cc1ccccc1)NC(=O)OC(C)(C)C)C(=O)N[C@@H]1c2ccccc2C[C@H]1O	–	0.0275 µM
COC(=O)[C@@H]1Cc2ccccc2[C@H]1NC(=O)[C@H](Cc1ccccc1)C[C@H](O)[C@H](Cc1ccccc1)NC(=O)OC(C)(C)C	–	0.0662 µM
CC(C)(C)OC(=O)N[C@@H](Cc1ccccc1)[C@@H](O)C[C@@H](Cc1ccncc1)C(=O)N[C@@H]1c2ccccc2C[C@H]1O	–	0.00053 µM
CC(C)(C)OC(=O)N[C@@H](Cc1ccccc1)[C@@H](O)C[C@@H](Cc1c(F)c(F)c(F)c(F)c1F)C(=O)N[C@@H]1c2ccccc2C[C@H]1O	–	0.0006 µM
CC(C)(C)OC(=O)N[C@@H](Cc1ccccc1)[C@@H](O)C[C@@H](Cc1ccc([N+](=O)[O-])cc1)C(=O)N[C@@H]1c2ccccc2C[C@H]1O	–	0.00027 µM
CC(C)(C)OC(=O)N[C@@H](Cc1ccccc1)[C@@H](O)C[C@@H](C/C=C/c1ccccc1)C(=O)N[C@@H]1c2ccccc2C[C@H]1O	–	0.00023 µM
CC(C)(C)OC(=O)N[C@@H](Cc1ccccc1)[C@@H](O)C[C@@H](Cc1ccc(I)cc1)C(=O)N[C@@H]1c2ccccc2C[C@H]1O	–	0.000719 µM
CC(C)(C)OC(=O)N[C@@H](Cc1ccccc1)[C@@H](O)C[C@@H](Cc1ccccc1)C(=O)N[C@@H]1C=CC[C@H]1O	–	0.00953 µM
CC(C)(C)OC(=O)N[C@@H](Cc1ccccc1)[C@@H](O)C[C@@H](CCCc1ccccc1)C(=O)N[C@@H]1c2ccccc2[C@@H](O)[C@H]1O	–	0.00019 µM
COc1c(Br)cc(/C=C2\C(=O)Nc3ccc(Cl)cc32)cc1C(C)(C)C	1000 µM	–
CC(C)(C)OC(=O)N[C@@H](Cc1ccccc1)[C@@H](O)C[C@@H](Cc1ccccc1)C(=O)N[C@H]1c2ccccc2OC[C@@H]1O	–	0.0406 µM

The next lines start with the values.

IC50 [1]	IC50 [2]	SMILES
1000 µM	–	O=C1Nc2ccccc2/C1=C\c1cc(Br)cs1
3.39 µM	–	CCc1ccc(/C=C2/C(=O)Nc3ccccc32)s1
1000 µM	–	Cn1cc(Cl)c(/C=C2/C(=O)Nc3ccccc32)n1
8.51 µM	–	CC(C)c1cc(/C=C2/C(=O)Nc3ccccc32)cc(C(C)C)c1O
3.02 µM	–	O=C1Nc2ccccc2/C1=C\c1ccc(N2CCCC2)cc1
0.0708 µM	–	CCOC(=O)c1c(C)[nH]c(/C=C2/C(=O)Nc3ccccc32)c1C
1000 µM	–	COc1ccc(/C=C2/C(=O)Nc3ccccc32)cc1C(C)(C)C
2.69 µM	–	O=C1Nc2ccccc2/C1=C\c1ccc(O)cc1
4.57 µM	–	CN(C)c1ccc(/C=C2/C(=O)Nc3cc(F)ccc32)cc1
0.708 µM	–	Cc1cc(C)c(/C=C2/C(=O)Nc3cc(F)ccc32)[nH]1
2.69 µM	–	Cc1c[nH]c(/C=C2/C(=O)Nc3ccccc32)c1C
0.794 µM	–	CN(C)c1ccc(/C=C2/C(=O)Nc3ccccc32)cc1
1000 µM	–	O=C1Nc2ccccc2/C1=C\c1ccco1
1000 µM	–	C/C(=C1\C(=O)Nc2ccccc21)c1ccc(N2CCCCC2)cc1
5.13 µM	–	O=CN1CCN(c2ccc(/C=C3\C(=O)Nc4ccccc43)cc2)CC1
1000 µM	–	CCc1c(C)[nH]c(/C=C2/C(=O)Nc3ccccc32)c1C
1000 µM	–	O=C1Nc2ccccc2/C1=C\c1ccc(Br)cc1
7.59 µM	–	COc1ccc(/C=C2/C(=O)Nc3ccccc32)cc1
1000 µM	–	CN1C(=O)/C(=C/c2ccc(Br)cc2)c2ccccc21

IC50 [1]	IC50 [2]	SMILES
0.398 µM	–	Cc1c[nH]c(/C=C2/C(=O)Nc3ccccc32)c1CCC(O)O
0.141 µM	–	CCc1c(/C=C2/C(=O)Nc3ccccc32)[nH]c(C)c1C
20.4 µM	–	Cn1cccc1/C=C1/C(=O)Nc2ccccc21
7.41 µM	–	O=C1Nc2ccccc2/C1=C\c1n[nH]cc1Cl
2.51 µM	–	O=C1Nc2ccccc2/C1=C\c1ccc(N2CCOCC2)cc1
46.8 µM	–	CC(C)(C)c1cc(/C=C2/C(=O)Nc3ccccc32)cc(Br)c1O
0.708 µM	–	O=C1Nc2cc(F)ccc2/C1=C\c1ccc[nH]1
22.4 µM	–	CN(C)c1ccc(/C=C2/C(=O)N(C)c3ccccc32)cc1
0.182 µM	–	CCOC(=O)c1c[nH]c(/C=C2/C(=O)Nc3ccccc32)c1C
8.32 µM	–	CC(C)(C)c1cc(/C=C2/C(=O)Nc3ccccc32)cc(C(C)(C)C)c1O
4.47 µM	–	O=C1Nc2ccccc2/C1=C\c1ccc(N2CCCCC2)cc1
–	0.122 µM	CC(C)(C)OC(=O)N[C@@H](Cc1ccccc1)[C@@H](O)C[C@@H](Cc1ccccc1)C(=O)N[C@@H]1CCCC[C@H]1O
2.34 µM	–	CSc1ccc(/C=C2/C(=O)Nc3ccccc32)s1
1000 µM	–	COc1ccc(/C=C2\C(=O)Nc3ccc(Cl)cc32)cc1C(C)(C)C
1000 µM	–	CSc1ccc(/C=C2\C(=O)Nc3cccc(C)c32)s1
50.1 µM	–	O=C1Nc2ccc(Br)cc2/C1=C/c1ccc(N2CCOCC2)cc1
1000 µM	–	O=C1Nc2ccc([N+](=O)[O-])cc2/C1=C/c1ccc[nH]1
100 µM	–	O=CN1CCN(c2ccc(/C=C3\C(=O)Nc4ccc(Br)cc43)cc2)CC1
